# According to patent publication US20150210729A1, “MACROLIDE DERIVATIVES, PREPARATION THEREOF AND THERAPEUTIC USE THEREOF” (priority 2012, published 2015):
# Test system: Mycobacterium tuberculosis H37Rv
# Assay: Alamar blue (MABA) test, MIC on Mycobacterium tuberculosis H37Rv
# Type: cell-based
# Details: H37RV, read-out: MIC (μM) MTb H37Rv
row,SMILES,MIC [µM]
1,"CON=C1C[C@@H](C)O[C@@H](O[C@@H]2[C@@H](C)[C@H](O[C@H]3C[C@@H](C)N(C)C[C@H](C)O3)[C@@H](C)C(=O)O[C@H](C(C)CO[C@@H]3O[C@H](C)[C@@H](O)[C@@H](OC)[C@H]3OC)[C@H](C)[C@@H](OC(=O)CC(C)C)[C@@H](C)C(=O)[C@@](C)(OC(=O)N(C)C)C[C@@H]2C)[C@@H]1O (stereo partly drawn) [Compound 3, (2R,3S,4R,5R,7S,9S,10S,11R,12S,13R)-7-[(dimethylcarbamoyl)oxy]-2-(1-{[(2R,3R,4R,5R,6R)-5-hydroxy-3,4-dimethoxy-6-methyltetrahydro-2H-pyran-2-yl]oxy}propan-2-yl)-10-{[(2S,3R,6R)-3-hydroxy-4-(methoxyimino)-6-methyltetrahydro-2H-pyran-2-yl]oxy}-3,5,7,9,11,13-hexamethyl-6,14-dioxo-12-{[(2S,5R,7R)-2,4,5-trimethyl-1,4-oxazepan-7-yl]oxy}oxacyclotetradecan-4-yl 3-methylbutanoate]",1.27

# Same assay, conditions: minimum inhibitory concentration, Alamar blue, strain H37Rv, read-out: MIC (μM) MTb H37Rv
row,SMILES,MIC [µM]
1,"CON=C1C[C@@H](C)O[C@@H](O[C@@H]2[C@@H](C)[C@H](O[C@H]3C[C@@H](C)N(C)C[C@H](C)O3)[C@@H](C)C(=O)O[C@H](C(C)CO[C@@H]3O[C@H](C)[C@@H](O)[C@@H](OC)[C@H]3OC)[C@H](C)[C@@H](OC(=O)CC(C)C)[C@@H](C)C(=O)[C@@](C)(O)C[C@@H]2C)[C@@H]1O (single isomer, unassigned) [Compound 1-a]",2.05
2,"CON=C1C[C@@H](C)O[C@@H](O[C@@H]2[C@@H](C)[C@H](O[C@H]3C[C@@H](C)N(C)C[C@H](C)O3)[C@@H](C)C(=O)O[C@H](C(C)CO[C@@H]3O[C@H](C)[C@@H](O)[C@@H](OC)[C@H]3OC)[C@H](C)[C@@H](OC(=O)CC(C)C)[C@@H](C)C(=O)[C@@](C)(OC(=O)NC(C)(C)CNS(=O)(=O)c3ccccc3[N+](=O)[O-])C[C@@H]2C)[C@@H]1O (single isomer, unassigned) [Compound 5-a]",0.34
3,"CON=C1C[C@@H](C)O[C@@H](O[C@@H]2[C@@H](C)[C@H](O[C@H]3C[C@H](C)N(C)C[C@H](C)O3)[C@@H](C)C(=O)O[C@H](C(C)CO[C@@H]3O[C@H](C)[C@@H](O)[C@@H](OC)[C@H]3OC)[C@H](C)[C@@H](OC(=O)CC(C)C)[C@@H](C)C(=O)[C@@](C)(OC(=O)NC(C)(C)CNS(=O)(=O)c3ccccc3[N+](=O)[O-])C[C@@H]2C)[C@@H]1O (single isomer, unassigned) [Compound 5-b]",0.53
4,"CON=C1C[C@@H](C)O[C@@H](O[C@@H]2[C@@H](C)[C@H](O[C@H]3C[C@@H](C)N(C)C[C@H](C)O3)[C@@H](C)C(=O)O[C@H](C(C)CO[C@@H]3O[C@H](C)[C@@H](O)[C@@H](OC)[C@H]3OC)[C@H](C)[C@@H](OC(=O)CC(C)C)[C@@H](C)C(=O)[C@@](C)(OC(=O)NCc3ccccc3)C[C@@H]2C)[C@@H]1O (single isomer, unassigned) [Compound 7-a]",0.54
5,"CON=C1C[C@@H](C)O[C@@H](O[C@@H]2[C@@H](C)[C@H](O[C@H]3C[C@H](C)N(C)C[C@H](C)O3)[C@@H](C)C(=O)O[C@H](C(C)CO[C@@H]3O[C@H](C)[C@@H](O)[C@@H](OC)[C@H]3OC)[C@H](C)[C@@H](OC(=O)CC(C)C)[C@@H](C)C(=O)[C@@](C)(OC(=O)NCc3ccccc3)C[C@@H]2C)[C@@H]1O (single isomer, unassigned) [Compound 7-b]",0.52
6,"CON=C1C[C@@H](C)O[C@@H](O[C@@H]2[C@@H](C)[C@H](O[C@H]3C[C@@H](C)NC[C@H](C)O3)[C@@H](C)C(=O)O[C@H](C(C)CO[C@@H]3O[C@H](C)[C@@H](O)[C@@H](OC)[C@H]3OC)[C@H](C)[C@@H](OC(=O)CC(C)C)[C@@H](C)C(=O)[C@@](C)(OC(=O)NCc3ccccc3)C[C@@H]2C)[C@@H]1O (single isomer, unassigned) [Compound 8-a]",0.56
7,"CON=C1C[C@@H](C)O[C@@H](O[C@@H]2[C@@H](C)[C@H](O[C@H]3C[C@H](C)N(C)C[C@H](C)O3)[C@@H](C)C(=O)O[C@H](C(C)CO[C@@H]3O[C@H](C)[C@@H](O)[C@@H](OC)[C@H]3OC)[C@H](C)[C@@H](OC(=O)CC(C)C)[C@@H](C)C(=O)[C@@](C)(OC(=O)NCCc3ccncc3)C[C@@H]2C)[C@@H]1O (stereo partly drawn) [Compound 2, (2R,3S,4R,5R,7S,9S,10S,11R,12S,13R)-2-(1-{[(2R,3R,4R,5R,6R)-5-hydroxy-3,4-dimethoxy-6-methyltetrahydro-2H-pyran-2-yl]oxy}propan-2-yl)-10-{[(2S,3R,6R)-3-hydroxy-4-(methoxyimino)-6-methyltetrahydro-2H-pyran-2-yl]oxy}-3,5,7,9,11,13-hexamethyl-6,14-dioxo-7-({[2-(pyridin-4-yl)ethyl]carbamoyl}oxy)-12-{[(2S,5S,7R)-2,4,5-trimethyl-1,4-oxazepan-7-yl]oxy}oxacyclotetradecan-4-yl 3-methylbutanoate]",1.25
8,CON=C1C[C@@H](C)O[C@@H](O[C@@H]2[C@@H](C)[C@H](O[C@H]3CC(C)N(C)C[C@H](C)O3)[C@@H](C)C(=O)O[C@H](C(C)CO[C@@H]3O[C@H](C)[C@@H](O)[C@@H](OC)[C@H]3OC)[C@H](C)[C@@H](OC(=O)CC(C)C)[C@@H](C)C(=O)[C@@](C)(OC(=O)NC(C)(C)CNS(=O)(=O)c3cn[nH]c3[N+](=O)[O-])C[C@@H]2C)[C@@H]1O (stereo partly shown) [Compound 4],0.21
9,"CON=C1C[C@@H](C)O[C@@H](O[C@@H]2[C@@H](C)[C@H](O[C@H]3CC(C)N(CCF)C[C@H](C)O3)[C@@H](C)C(=O)O[C@H](C(C)CO[C@@H]3O[C@H](C)[C@@H](O)[C@@H](OC)[C@H]3OC)[C@H](C)[C@@H](OC(=O)CC(C)C)[C@@H](C)C(=O)[C@@](C)(OC(=O)NCc3ccccc3)C[C@@H]2C)[C@@H]1O (stereo partly drawn) [Compound 6, (2R,3S,4R,5R,7S,9S,10S,11R,12S,13R)-7-[(benzylcarbamoyl)oxy]-12-{[(2S,7R)-4-(2-fluoroethyl)-2,5-dimethyl-1,4-oxazepan-7-yl]oxy}-2-(1-{[(2R,3R,4R,5R,6R)-5-hydroxy-3,4-dimethoxy-6-methyltetrahydro-2H-pyran-2-yl]oxy}propan-2-yl)-10-{[(2S,3R,6R)-3-hydroxy-4-(methoxyimino)-6-methyltetrahydro-2H-pyran-2-yl]oxy}-3,5,7,9,11,13-hexamethyl-6,14-dioxooxacyclotetradecan-4-yl 3-methylbutanoate]",0.91
10,CON=C1C[C@@H](C)O[C@@H](O[C@@H]2[C@@H](C)[C@H](O[C@H]3C[C@H](C)N(CC(C)(C)O)C[C@H](C)O3)[C@@H](C)C(=O)O[C@H]([C@@H](C)CO[C@@H]3O[C@H](C)[C@@H](O)[C@@H](OC)[C@H]3OC)[C@H](C)[C@@H](OC(=O)CC(C)C)[C@@H](C)C(=O)[C@@](C)(OC(=O)NCc3ccccc3)C[C@@H]2C)[C@@H]1O [Compound 11],0.63
11,CON=C1C[C@@H](C)O[C@@H](O[C@@H]2[C@@H](C)[C@H](O[C@H]3C[C@@H](C)N(CC(C)(C)O)C[C@H](C)O3)[C@@H](C)C(=O)O[C@H]([C@@H](C)CO[C@@H]3O[C@H](C)[C@@H](O)[C@@H](OC)[C@H]3OC)[C@H](C)[C@@H](OC(=O)CC(C)C)[C@@H](C)C(=O)[C@@](C)(OC(=O)NCc3ccccc3)C[C@@H]2C)[C@@H]1O [Compound 12],0.6
12,CON=C1C[C@@H](C)O[C@@H](O[C@@H]2[C@@H](C)[C@H](O[C@H]3C[C@H](C)N(C)C[C@H](C)O3)[C@@H](C)C(=O)O[C@H]([C@@H](C)CO[C@@H]3O[C@H](C)[C@@H](O)[C@@H](OC)[C@H]3OC)[C@H](C)[C@@H](OC(=O)CC(C)C)[C@@H](C)C(=O)[C@@](C)(OC(=O)NC(C)(C)CNC(=O)c3cnc(O)cn3)C[C@@H]2C)[C@@H]1O [Compound 14],0.67
13,CON=C1C[C@@H](C)O[C@@H](O[C@@H]2[C@@H](C)[C@H](O[C@H]3CC(C)N(CC(=O)Nc4ccc5ccc(C)nc5n4)C[C@H](C)O3)[C@@H](C)C(=O)O[C@H]([C@@H](C)CO[C@@H]3O[C@H](C)[C@@H](O)[C@@H](OC)[C@H]3OC)[C@H](C)[C@@H](OC(=O)CC(C)C)[C@@H](C)C(=O)[C@@](C)(OC(=O)NCc3ccccc3)C[C@@H]2C)[C@@H]1O (stereo partly shown) [Compound 51],0.29
14,CON=C1C[C@@H](C)O[C@@H](O[C@@H]2[C@@H](C)[C@H](O[C@H]3C[C@@H](C)N(C)CC(C)O3)[C@@H](C)C(=O)O[C@H]([C@@H](C)CO[C@@H]3O[C@H](C)[C@@H](O)[C@@H](OC)[C@H]3OC)[C@H](C)[C@@H](OC(=O)CC(C)C)[C@@H](C)C(=O)[C@@](C)(OC(=O)NC(C)(C)CNS(=O)(=O)c3ccccc3)C[C@@H]2C)[C@@H]1O (stereo partly shown) [Compound 70],0.46

# Test system: Streptococcus pneumoniae
# Assay: ATP bioluminescence test, inhibition of bacterial growth of Streptococcus pneumoniae (IC80)
# Type: cell-based
# Details: 80% inhibition of bacterial growth, ATP/luciferase readout, read-out: IC80 (μM) S. pneumoniae
# Method: Measurement of the Inhibitory Activity (IC80) of the Compounds According to the Invention Towards Streptococcus pneumoniae
# The test used is a bioluminescence test, the aim of which is to measure the inhibition of bacterial growth of Streptococcus pneumoniae by quantification of the amount of adenosine triphosphate (ATP). Specifically, ATP is a major and mandatory energy intermediate of very many reactions of cell metabolism which characterizes live media.
# ATP quantification is performed at the end of the test by using an enzyme, luciferase, which, in the presence of ATP and of a specific substrate, luciferin, produces quantifiable light.
# Thus, in the presence of luciferin and luciferase at […] concentrations, the value obtained in relative light units (RLU) will make it possible, by means of a calibration, to estimate the amount of ATP and thus deduce the number of live bacteria at the end of the incubation period.
# Thus, the more the RLU value obtained at the end of the test tends towards zero, the more the product inhibits the total growth of bacteria.
# The results (Table 3) are expressed in IC80.
row,SMILES,IC80 [µM]
1,"CON=C1C[C@@H](C)O[C@@H](O[C@@H]2[C@@H](C)[C@H](O[C@H]3C[C@@H](C)NC[C@H](C)O3)[C@@H](C)C(=O)O[C@H](C(C)CO[C@@H]3O[C@H](C)[C@@H](O)[C@@H](OC)[C@H]3OC)[C@H](C)[C@@H](OC(=O)CC(C)C)[C@@H](C)C(=O)[C@@](C)(OC(=O)NCc3ccccc3)C[C@@H]2C)[C@@H]1O (single isomer, unassigned) [Compound 8-a]",1.84
2,"CON=C1C[C@@H](C)O[C@@H](O[C@@H]2[C@@H](C)[C@H](O[C@H]3C[C@H](C)N(C)C[C@H](C)O3)[C@@H](C)C(=O)O[C@H](C(C)CO[C@@H]3O[C@H](C)[C@@H](O)[C@@H](OC)[C@H]3OC)[C@H](C)[C@@H](OC(=O)CC(C)C)[C@@H](C)C(=O)[C@@](C)(OC(=O)NCCc3ccncc3)C[C@@H]2C)[C@@H]1O (stereo partly drawn) [Compound 2, (2R,3S,4R,5R,7S,9S,10S,11R,12S,13R)-2-(1-{[(2R,3R,4R,5R,6R)-5-hydroxy-3,4-dimethoxy-6-methyltetrahydro-2H-pyran-2-yl]oxy}propan-2-yl)-10-{[(2S,3R,6R)-3-hydroxy-4-(methoxyimino)-6-methyltetrahydro-2H-pyran-2-yl]oxy}-3,5,7,9,11,13-hexamethyl-6,14-dioxo-7-({[2-(pyridin-4-yl)ethyl]carbamoyl}oxy)-12-{[(2S,5S,7R)-2,4,5-trimethyl-1,4-oxazepan-7-yl]oxy}oxacyclotetradecan-4-yl 3-methylbutanoate]",0.28
3,CON=C1C[C@@H](C)O[C@@H](O[C@@H]2[C@@H](C)[C@H](O[C@H]3C[C@H](C)N(C)C[C@H](C)O3)[C@@H](C)C(=O)O[C@H]([C@@H](C)CO[C@@H]3O[C@H](C)[C@@H](O)[C@@H](OC)[C@H]3OC)[C@H](C)[C@@H](OC(=O)CC(C)C)[C@@H](C)C(=O)[C@@](C)(OC(=O)NC(C)(C)CNC(=O)c3cnc(O)cn3)C[C@@H]2C)[C@@H]1O [Compound 14],2.27

# Same assay, conditions: read-out: IC80 (μM) S. pneumoniae
row,SMILES,IC80 [µM]
1,"CN[C@H](CC(C)C)C(=O)N[C@H]1C(=O)N[C@@H](CC(N)=O)C(=O)N[C@H]2C(=O)N[C@H]3C(=O)N[C@H](C(=O)N[C@H](C(=O)O)c4cc(O)cc(O)c4-c4cc3ccc4O)[C@H](O)c3ccc(c(Cl)c3)Oc3cc2cc(c3O[C@@H]2O[C@H](CO)[C@@H](O)[C@H](O)[C@H]2O[C@H]2C[C@](C)(N)[C@H](O)[C@H](C)O2)Oc2ccc(cc2Cl)[C@H]1O [vancomycin, reference compound]",0.14
